Measurements from ChEMBL document CHEMBL1201862, “PubChem BioAssay data set” (2004).
Active and inactive are the calls of the source.

Experiments:
[1] = tested on: Escherichia coli; assay: microbe, parasite or virus in culture
[2] = tested on: Vero; assay: cells; format: functional; conditions: Chlorocebus sabaeus
[3] = target: T1, Heat shock factor protein 1 (Mus musculus, UniProt P38532); assay: enhancement of HSF1-driven luciferase signal – cell-based, NIH3T3, luminescence, dose retest, confirmation (AID 435004); format: functional;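 also: stress induced by proteasome inhibitor MG132 added 30 min after compound; luciferase reporter driven by HSF1 response element in NIH3T3 cells; actives raise luminescence as potentiators of the MG132 stress response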
T1 sequence (P38532 whole entry): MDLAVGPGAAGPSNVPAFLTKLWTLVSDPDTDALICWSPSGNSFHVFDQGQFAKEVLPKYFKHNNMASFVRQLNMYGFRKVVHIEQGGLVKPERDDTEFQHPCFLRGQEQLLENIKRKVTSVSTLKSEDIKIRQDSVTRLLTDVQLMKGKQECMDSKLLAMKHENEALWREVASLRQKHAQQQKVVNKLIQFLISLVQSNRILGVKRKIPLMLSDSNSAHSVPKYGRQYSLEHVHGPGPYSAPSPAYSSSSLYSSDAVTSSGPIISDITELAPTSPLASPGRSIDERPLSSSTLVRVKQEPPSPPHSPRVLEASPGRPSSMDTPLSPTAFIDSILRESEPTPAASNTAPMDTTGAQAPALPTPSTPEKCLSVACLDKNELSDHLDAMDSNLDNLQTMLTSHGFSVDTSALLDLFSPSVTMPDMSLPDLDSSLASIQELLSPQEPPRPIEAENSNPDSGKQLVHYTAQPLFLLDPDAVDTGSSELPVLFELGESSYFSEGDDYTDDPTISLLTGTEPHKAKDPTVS

[4] = decrease of insulin promoter-GFP reporter – imaging, high-content screening, mouse beta cells (AID 1628); format: functional; conditions: MIN6
[5] = MIN6 cell viability loss – mouse insulinoma, cytotoxicity control, dose response (AID 2122); format: functional;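 also: confirmatory high-throughput counterscreen run to flag cytotoxic compounds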
[6] = cells; format: functional, cell-based
[7] = cells; format: functional, cell-based; remark: listed apart in the source
[8] = tested on: INS1; assay: INS-1E survival protection against cytokine death – cell-based, luminescence, retest, dose response (AID 449756); format: functional; conditions: Rattus norvegicus;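 also: cell death triggered by IL-1 beta plus TNF-alpha plus IFN-gamma mixture; protective hits raise ATP signal compared with cytokine alone wells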
[9] = reduction of Shn3 3'UTR-driven luciferase in osteoblasts – cell-based, Clone20 osteoblasts, firefly luciferase, cherry-picked, dose response (AID 624132); format: functional;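 also: firefly luciferase luminescence from reporter carrying the Shn3 3'UTR in osteoblasts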
[10] = loss of viability in HepG2 cells – cell-based, CellTiter-Glo, cherry-picked, cytotoxicity control for Shn3 inhibitor project, dose response (AID 624134); format: functional
[11] = non-specific 3'UTR reporter inhibition in Clone20-Shn3RL – cell-based, Renilla luciferase, cherry-picked, counter-screen for Shn3 inhibitor project, dose response (AID 624133); format: functional

Cc1nc(SCc2ccc(C(=O)O)cc2)c2c(C)c(C)sc2n1
AC50 [1]: 28.5 µM (active)

O=C1N(c2ccccc2C(F)(F)F)OC1(Cc1ccccc1)c1ccccc1 (stereo not given)
CC50 [2]: > 25 µM (active)

COc1ccc(-c2nnc(Nc3ccc(CC(N)=O)cc3)c3ccccc23)cc1
EC50 [3]: > 260 µM (inactive)
AC50 [1]: 23.2 µM (active)

Cn1c(=O)c2c(nc(NCc3ccc4c(c3)OCO4)n2Cc2ccccc2)n(C)c1=O
IC50 [4]: 0.696 µM (active)
IC50 [5]: 0.541 µM (active)

COC(=O)c1c(NC(=O)CCN2CCOCC2)sc2c1CCCC2
AC50 [1]: 85.8 µM (active)

Cc1ccc(Nc2c(-c3ccccn3)nc3ccc(C)cn23)cc1
IC50 [4]: 1.95 µM (active)
EC50 [6]: 79.5 µM (active)
IC50 [5]: 0.539 µM (active)
EC50 [7]: 38.3 µM (active)
AC50 [8]: 3 µM (active)
AC50 [9]: 1.74 µM (active)
AC50 [10]: 5.21 µM (active)
AC50 [11]: 3.02 µM (active)
